One experiment deals with T1, KRAS G12C mutant (Homo sapiens, UniProt P01116, G12C).
T1 construct: 50 μM G12C K-Ras4B (1-169) protein and 1 mM BODIPY® FL GDP; His tag (N, cleaved yes); made in house; host or cells: E. coli BL21 (DE3)
Description: Inhibition of SOS1-mediated nucleotide (GDP-GTP) exchange reaction of KRAS G12C mutant, BODIPY FL GDP fluorescence. In kind it is biochemical. Conditions: preincubated 25° C. 4 hours with 25 nM KRAS G12C bound with BODIPY FL GDP; SOS1 100 nM, GppNHp 1 μM, 30 minutes. In outline: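 KRAS G12C (1-169) loaded with BODIPY FL GDP (25 nM) was preincubated with compound (5% DMSO) for 4 h at 25 °C. Exchange then ran 30 min with SOS1 (564-1049, 100 nM) and 1 µM GppNHp. IC50 came from the 485/520 nm fluorescence change, normalized to DMSO and no-GppNHp controls.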

The next experiment has as its target T2, G12C K-Ras4B (1-169) (Homo sapiens, UniProt P01116, G12C).
T2 construct: G12C K-Ras4B (1-169) protein, which was a KRAS G12C mutant; His tag (N, cleaved yes); made in house; host or cells: E. coli BL21 (DE3)
Description: Binding to KRAS G12C mutant, compound binding rate by LC-MS. Particulars: final compound concentration 2 μM, 1 μM protein, 2 hours at 25° C. In outline:
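Covalent labelling at 2 μM final compound on a mix of 1 μM each wild-type and G12C K-Ras4B (1-169) (E. coli-expressed, tag removed) in 1×TBS, 0.1 mM TCEP, 2 h at 25° C., quenched with formic acid. Intact-protein ESI Q-TOF LC-MS; binding rate from adduct vs unbound protein signal, graded A–E in 20% bands.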

The subject of another experiment is NCI-H358 cells. Description: Growth inhibition of KRAS-G12C mutant cell line NCI-H358 (CellTiter-Glo 2.0). It counts as cell-based. Conditions: Homo sapiens, 72 h; NCI-H358, 3-day culture with compound. The protocol:
KRAS-G12C mutant human lung cancer cell line NCI-H358 cells (ATCC, Cat #: CRL-5807) were suspended in RPMI1640 medium (manufactured by Fujifilm Wako Pure Chemical Corp.) containing 10% fetal bovine serum. The cell suspension was seeded at 500 cells/well into the wells of a 384-well flat-bottom microplate and cultured at 37° C. for 1 day in an incubator containing 5% CO2. The compound of the present invention was dissolved in DMSO and diluted with DMSO such that the concentration of the test compound was 500 times the final concentration. The solution of the test compound in DMSO was diluted with the medium used for suspending the cells, and the resultant was added to each well of the cell culture plate such that the final concentration of DMSO was 0.2%, followed by culture at 37° C. for another 3 days in an incubator containing 5% CO2.
Growth inhibition rate (%)=(C−T)/(C)×100 • T: the emission intensity in a well supplemented with the test compound. • C: the emission intensity in a well not supplemented with the test compound.
(Cellular ATP, detected with luciferase, serves as a proxy for viable cell number.)

Broadly, the IC50 is the concentration at which inhibition is half-maximal. `C=CC(=O)N1CC(NC(=O)c2ccc(CNc3cc(C(C)(C)C)c(Cl)cc3O)o2)C1` [Example 1, N-(1-Acryloylazetidin-3-yl)-5-(((5-(tert-butyl)-4-chloro-2-hydroxyphenyl)amino)methyl)furan-2-carboxamide]: the results for the IC50 against KRAS G12C mutant and in the experiment with NCI-H358 cells were 326 nM and 4110 nM, respectively. Besides, on G12C K-Ras4B (1-169), the “binding rate for G12C K-Ras4B (1-169)” value is “A (80% or more)”.

`C=CC(=O)N1CC(N(C)C(=O)c2ccc(CNc3cc(C(C)(C)C)c(Cl)cc3O)o2)C1` [Example 4, N-(1-Acryloylazetidin-3-yl)-5-(((5-(tert-butyl)-4-chloro-2-hydroxyphenyl)amino)methyl)-N-methylfuran-2-carboxamide]: the IC50 at KRAS G12C mutant is 11 nM; with NCI-H358 cells, 1170 nM. Also, the “binding rate for G12C K-Ras4B (1-169)” value at G12C K-Ras4B (1-169) is “A (80% or more)”.

In the case of `C=CC(=O)N1CC(N(CC)C(=O)c2ccc(CNc3cc(C(C)(C)C)c(Cl)cc3O)o2)C1` [Example 5, N-(1-Acryloylazetidin-3-yl)-5-(((5-(tert-butyl)-4-chloro-2-hydroxyphenyl)amino)methyl)-N-ethylfuran-2-carboxamide], the IC50 against KRAS G12C mutant was found to be 12 nM; with NCI-H358 cells, 699 nM. The “binding rate for G12C K-Ras4B (1-169)” value at G12C K-Ras4B (1-169) is “A (80% or more)”.

`C=CC(=O)N1CC(NC(=O)c2cnc(CNc3cc(C(C)(C)C)c(Cl)cc3O)n2C)C1` [Example 18, N-(1-Acryloylazetidin-3-yl)-2-(((5-(tert-butyl)-4-chloro-2-hydroxyphenyl)amino)methyl)-1-methyl-1H-imidazole-5-carboxamide]: the IC50 on KRAS G12C mutant was found to be 11 nM; in the experiment on NCI-H358 cells, 562 nM. For the same compound, on G12C K-Ras4B (1-169), the “binding rate for G12C K-Ras4B (1-169)” value is reported as “A (80% or more)”.

Turning to `C=CC(=O)N1CC(NC(=O)c2sc(CNc3cc(C(C)(C)C)c(Cl)cc3O)nc2C)C1` [Example 20, N-(1-Acryloylazetidin-3-yl)-2-(((5-(tert-butyl)-4-chloro-2-hydroxyphenyl)amino)methyl)-4-methylthiazole-5-carboxamide], the IC50 at KRAS G12C mutant turned out to be 13 nM; in the experiment with NCI-H358 cells, 658 nM. Besides, the “binding rate for G12C K-Ras4B (1-169)” value on G12C K-Ras4B (1-169) was “A (80% or more)”.

Take `C=CC(=O)N1CC(N(C)C(=O)c2nc(CNc3cc(C(C)(C)C)c(Cl)cc3O)cs2)C1` [Example 29, N-(1-Acryloylazetidin-3-yl)-4-(((5-(tert-butyl)-4-chloro-2-hydroxyphenyl)amino)methyl)-N-methylthiazole-2-carboxamide]: the values for the IC50 against KRAS G12C mutant and in the experiment with NCI-H358 cells were 12 nM and 1110 nM, respectively. The “binding rate for G12C K-Ras4B (1-169)” value at G12C K-Ras4B (1-169) is on record as “A (80% or more)”.

Consider `C=CC(=O)N1CC(NC(=O)c2cnc(CNc3cc(C(C)(C)C)c(Cl)cc3O)n2CCOC)C1` [Example 37, N-(1-Acryloylazetidin-3-yl)-2-(((5-(tert-butyl)-4-chloro-2-hydroxyphenyl)amino)methyl)-1-(2-methoxyethyl)-1H-imidazole-5-carboxamide], for which the values for the IC50 on KRAS G12C mutant and in the experiment on NCI-H358 cells were 13 nM and 321 nM, respectively. The “binding rate for G12C K-Ras4B (1-169)” value at G12C K-Ras4B (1-169) was “A (80% or more)”.

For `C=CC(=O)N1CC(NC(=O)c2c(C)nc(CNc3nc([Si](C)(C)C)c(Cl)cc3O)n2C)C1` [Example 85, N-(1-Acryloylazetidin-3-yl)-2-(((5-chloro-3-hydroxy-6-(trimethylsilyl)pyridin-2-yl)amino)methyl)-1,4-dimethyl-1H-imidazole-5-carboxamide], at KRAS G12C mutant, inhibition was half-maximal at 39 nM (IC50). The “binding rate for G12C K-Ras4B (1-169)” value at G12C K-Ras4B (1-169) is “C (40% or more and less than 60%)”.

On KRAS G12C mutant, `CN(C)C/C=C/C(=O)N1CC(NC(=O)c2cnc(CNc3cc(C(C)(C)C)c(Cl)cc3O)s2)C1` [Example 86, (E)-2-(((5-(tert-Butyl)-4-chloro-2-hydroxyphenyl)amino)methyl)-N-(1-(4-(dimethylamino)but-2-enoyl)azetidin-3-yl)thiazole-5-carboxamide] displayed an IC50 of 701 nM. On G12C K-Ras4B (1-169), the “binding rate for G12C K-Ras4B (1-169)” value was “B (60% or more and less than 80%)”.

Regarding `CN(C)C/C=C/C(=O)N1CC(N(C)C(=O)c2ccc(CNc3cc(C(C)(C)C)c(Cl)cc3O)o2)C1` [Example 87, (E)-5-(((5-(tert-Butyl)-4-chloro-2-hydroxyphenyl)amino)methyl)-N-(1-(4-(dimethylamino)but-2-enoyl)azetidin-3-yl)-N-methylfuran-2-carboxamide], at KRAS G12C mutant, the half-inhibitory concentration (IC50) turned out to be 193 nM. Further, the “binding rate for G12C K-Ras4B (1-169)” value at G12C K-Ras4B (1-169) is “A (80% or more)”.

Consider `Cc1nc(CNc2cc(C(C)(C)C)c(Cl)cc2O)sc1C(=O)NC1CN(C(=O)/C=C/CN(C)C)C1` [Example 88, (E)-2-(((5-(tert-Butyl)-4-chloro-2-hydroxyphenyl)amino)methyl)-N-(1-(4-(dimethylamino)but-2-enoyl)azetidin-3-yl)-4-methylthiazole-5-carboxamide], for which, on KRAS G12C mutant, half-maximal inhibition (IC50) required 109 nM. The “binding rate for G12C K-Ras4B (1-169)” value on G12C K-Ras4B (1-169) was “C (40% or more and less than 60%)”.

Take `CN(C)C/C=C/C(=O)N1CC(NC(=O)c2cnc(CNc3cc(C(C)(C)C)c(Cl)cc3O)n2C)C1` [Example 89, (E)-2-(((5-(tert-Butyl)-4-chloro-2-hydroxyphenyl)amino)methyl)-N-(1-(4-(dimethylamino)but-2-enoyl)azetidin-3-yl)-1-methyl-1H-imidazole-5-carboxamide]: at KRAS G12C mutant, it took 61 nM to reach half-maximal inhibition (IC50). For the same compound, the “binding rate for G12C K-Ras4B (1-169)” value on G12C K-Ras4B (1-169) is “A (80% or more)”.

With `C=CC(=O)N1CC(NC(=O)c2cnc(CCc3cc(C(C)(C)C)c(Cl)cc3O)n2C)C1` [Example 90, N-(1-Acryloylazetidin-3-yl)-2-(5-(tert-butyl)-4-chloro-2-hydroxyphenethyl)-1-methyl-1H-imidazole-5-carboxamide], half-maximal inhibition against KRAS G12C mutant (IC50) required 549 nM. For the same compound, the “binding rate for G12C K-Ras4B (1-169)” value at G12C K-Ras4B (1-169) was “D (20% or more and less than 40%)”.

As to `C=CC(=O)N1CC(NC(=O)c2c(C)nc(C(O)c3cc(C(C)(C)C)c(Cl)cc3O)n2C)C1` (centres unmarked) [Example 91, N-(1-Acryloylazetidin-3-yl)-2-((5-(tert-butyl)-4-chloro-2-hydroxyphenyl) (hydroxy)methyl)-1,4-dimethyl-1H-imidazole-5-carboxamide], the IC50 on KRAS G12C mutant is 128 nM. Also, on G12C K-Ras4B (1-169), the “binding rate for G12C K-Ras4B (1-169)” value is “D (20% or more and less than 40%)”.

Regarding `C=CC(=O)N1CC(NC(=O)c2c(C)nc(C(O)c3cc(C(C)(C)C)c(F)cc3O)n2C)C1` (centres unmarked) [Example 93, N-(1-Acryloylazetidin-3-yl)-2-((5-(tert-butyl)-4-fluoro-2-hydroxyphenyl) (hydroxy)methyl)-1,4-dimethyl-1H-imidazole-5-carboxamide], the IC50 at KRAS G12C mutant was 500 nM. The “binding rate for G12C K-Ras4B (1-169)” value at G12C K-Ras4B (1-169) is on record as “E (less than 20%)”.

Turning to `C=CC(=O)N1CC(NC(=O)c2c(C)nc(Cc3cc(C(C)(C)C)c(F)cc3O)n2C)C1` [Example 94, N-(1-Acryloylazetidin-3-yl)-2-(5-(tert-butyl)-4-fluoro-2-hydroxybenzyl)-1,4-dimethyl-1H-imidazole-5-carboxamide], the IC50 against KRAS G12C mutant came to 170 nM. Also, at G12C K-Ras4B (1-169), the “binding rate for G12C K-Ras4B (1-169)” value was “C (40% or more and less than 60%)”.

Consider `C=CC(=O)N1CC(NC(=O)c2sc(Cc3cc(C(C)(C)C)c(Cl)cc3O)nc2C)C1` [Example 95, N-(1-Acryloylazetidin-3-yl)-2-(5-(tert-butyl)-4-chloro-2-hydroxybenzyl)-4-methylthiazole-5-carboxamide], for which half-maximal inhibition at KRAS G12C mutant (IC50) was put at 467 nM. On G12C K-Ras4B (1-169), the “binding rate for G12C K-Ras4B (1-169)” value is “C (40% or more and less than 60%)”.

In turn, `C=CC(=O)N1CC(NC(=O)c2cnc(C(O)c3cc(C(C)(C)C)c(Cl)cc3O)n2C)C1` (centres unmarked) [Example 98, N-(1-Acryloylazetidin-3-yl)-2-((5-(tert-butyl)-4-chloro-2-hydroxyphenyl) (hydroxy)methyl)-1-methyl-1H-imidazole-5-carboxamide] had an IC50 against KRAS G12C mutant of 205 nM. Further, the “binding rate for G12C K-Ras4B (1-169)” value on G12C K-Ras4B (1-169) was “B (60% or more and less than 80%)”.

As for `C=CC(=O)N1CC(NC(=O)c2ccc(CNc3cc(C(C)(C)C)c(Cl)cc3OC)o2)C1` [Reference Example1, N-(1-Acryloylazetidin-3-yl)-5-(((5-(tert-butyl)-4-chloro-2-methoxyphenyl)amino)methyl)furan-2-carboxamide, reference compound], the concentration for half-maximal inhibition (IC50) on KRAS G12C mutant was > 10000 nM. For the same compound, the “binding rate for G12C K-Ras4B (1-169)” value on G12C K-Ras4B (1-169) is given as “E (less than 20%)”.

Take `C=CC(=O)N1CC(NC(=O)c2ccc(CNc3ccc(Cl)c(C(C)(C)C)c3)o2)C1` [Reference Example2, N-(1-Acryloylazetidin-3-yl)-5-(((3-(tert-butyl)-4-chlorophenyl)amino)methyl)furan-2-carboxamide, reference compound]: on KRAS G12C mutant, the IC50 was > 10000 nM. The “binding rate for G12C K-Ras4B (1-169)” value at G12C K-Ras4B (1-169) was “E (less than 20%)”.

For the origin of these results see patent US12479834B2, “Phenol compound or salt thereof” (TAIHO PHARMACEUTICAL CO., LTD., priority 2019, dated 2025).
